Experimental data taken from patent publication US7109354B2, “Thiophene amidines, compositions thereof, and methods of treating complement-mediated diseases and conditions” (3-Dimensional Pharmaceuticals, Inc., priority 2002, dated 2006).
Counter-ions that a name gives are not always drawn.

Target: T1, Activated human C1s (Homo sapiens, UniProt P09871)
T1 construct: purchased Calbiochem (La Jolla, Calif.)
T1 sequence (P09871 438-688 limits assumed): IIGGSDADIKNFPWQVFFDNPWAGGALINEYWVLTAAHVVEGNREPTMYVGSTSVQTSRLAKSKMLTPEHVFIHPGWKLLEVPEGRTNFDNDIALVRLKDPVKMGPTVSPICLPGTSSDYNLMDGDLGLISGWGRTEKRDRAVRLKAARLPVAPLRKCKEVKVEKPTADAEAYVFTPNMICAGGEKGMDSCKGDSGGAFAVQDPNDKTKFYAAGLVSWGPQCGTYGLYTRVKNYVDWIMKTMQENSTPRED
T1 sequence (P09871 16-437 partner limits assumed): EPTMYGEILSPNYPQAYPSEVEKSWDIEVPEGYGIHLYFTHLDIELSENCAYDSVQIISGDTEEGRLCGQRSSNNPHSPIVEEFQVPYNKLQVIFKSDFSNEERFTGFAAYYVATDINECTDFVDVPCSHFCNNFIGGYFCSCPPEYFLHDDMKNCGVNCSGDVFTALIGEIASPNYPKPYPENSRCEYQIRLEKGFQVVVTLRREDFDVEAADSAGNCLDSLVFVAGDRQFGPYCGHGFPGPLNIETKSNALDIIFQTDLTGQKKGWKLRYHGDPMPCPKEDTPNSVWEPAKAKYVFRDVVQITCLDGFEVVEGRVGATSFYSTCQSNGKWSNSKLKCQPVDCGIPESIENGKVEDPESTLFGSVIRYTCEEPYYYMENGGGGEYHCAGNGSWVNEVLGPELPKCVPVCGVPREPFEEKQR
Assay: In vitro inhibition of C1s (Ki determination, C1s-catalyzed hydrolysis of Z-Gly-Arg-S-Bzl, DTNB readout)
Type: biochemical
Settings: substrate Z-Gly-Arg-S-Bzl 45 μM, DTNB 200 μM, C1s 2.3 nM, pH 7.5, 37° C., absorbance at 405 nm

## CSc1sc(C(=N)N)cc1S(=O)(=O)c1cc(-c2ccccc2C)c2nc[nH]c2c1 [Example 110, 5-methylsulfanyl-4-(7-o-tolyl-3H-benzoimidazole-5-sulfonyl)-thiophene-2-carboxamidine trifluoroacetate]
  Ki: 6 to 23 nM

## CSc1sc(C(=N)N)cc1S(=O)(=O)c1cccc(-c2cccc(C)c2)c1 [Example 60, 4-(3′-methyl-biphenyl-3-sulfonyl)-5-methylsulfanyl-thiophene-2-carboxamidine]
  Ki: 6 to 23 nM

## Cc1ccccc1-c1cccc(S(=O)(=O)c2cc(C(=N)N)sc2Br)c1 [Example 24, 5-Bromo-4-(2′-methyl-biphenyl-3-sulfonyl)-thiophene-2-carboxamidine trifluoroacetate]
  Ki: 6 to 23 nM

## CSc1sc(C(=N)N)cc1S(=O)(=O)c1cccc(-c2c(C)cc(NC(=N)N)cc2N)c1 [Example 237, 4-(6′-Amino-4′-guanidino-2′-methyl-biphenyl-3-sulfonyl)-5-methylsulfanyl-thiophene-2-carboxamidine bis-trifluoroacetate]
  Ki: 6 to 23 nM

## CSc1sc(C(=N)N)cc1S(=O)(=O)c1cccc(-c2ccc(O)c(C=O)c2)c1 [Example 26, 4-(3′-Formyl-4′-hydroxy-biphenyl-3-sulfonyl)-5-methylsulfanyl-thiophene-2-carboxamidine trifluoroacetate]
  Ki: 6 to 23 nM

## CSc1sc(C(=N)N)cc1S(=O)(=O)c1cccc(-c2c(C)cc(NC(=N)N)cc2NC(=O)CCCCCCCCCCC(=O)O)c1 [Example 295, 11-[3′-(5-Carbamimidoyl-2-methylsulfanyl-thiophene-3-sulfonyl)-4-guanidino-6-methyl-biphenyl-2-ylcarbamoyl]-undecanoic acid bis-trifluoroacetate]
  Ki: 6 to 23 nM

## CSc1sc(C(=N)N)cc1S(=O)(=O)c1cccc(-c2ccc(CO)cc2)c1 [Example 83, 4-(4′-hydroxymethyl-biphenyl-3-sulfonyl)-5-methylsulfanyl-thiophene-2-carboxamidine]
  Ki: 6 to 23 nM

## CSc1sc(C(=N)N)cc1S(=O)(=O)c1cccc(-c2cncnc2)c1 [Example 71, 5-Methylsulfanyl-4-(3-pyrimidin-5-yl-benzenesulfonyl)-thiophene-2-carboxamidine]
  Ki: 6 to 23 nM

## CSc1sc(C(=N)N)cc1S(=O)(=O)c1cccc(-c2cc(CO)ccc2C)c1 [Example 7, 4-(5′-Hydroxymethyl-2′-methyl-biphenyl-3-sulfonyl)-5-methylsulfanyl-thiophene-2-carboxamidine trifluoroacetate]
  Ki: 6 to 23 nM

## CSc1sc(C(=N)N)cc1S(=O)(=O)c1cccc(-c2ccccc2C=O)c1 [Example 93, 4-(2′-formyl-biphenyl-3-sulfonyl)-5-methylsulfanyl-thiophene-2-carboxamidine]
  Ki: 6 to 23 nM

## CSc1sc(C(=N)N)cc1S(=O)(=O)c1cccc(-c2ccc(NC(=N)N)cc2C)c1 [Example 314, 4-(4′-Guanidino-2′-methyl-biphenyl-3-sulfonyl)-5-methylsulfanyl-thiophene-2-carboxamidine bis-trifluoroacetate]
  Ki: 6 to 23 nM

## CSc1sc(C(=N)N)cc1S(=O)(=O)c1cnc(Cl)c(Br)c1 [Example 118, 4-(5-Bromo-6-chloro-pyridine-3-sulfonyl)-5-methylsulfanyl-thiophene-2-carboxamidine]
  Ki: 6 to 23 nM

## CSc1sc(C(=N)N)cc1S(=O)(=O)c1cccc(-c2ccc3[nH]cnc3c2)c1 [Example 106, 4-[3-(1H-benzoimidazol-5-yl)-benzenesulfonyl]-5-methylsulfanyl-thiophene-2-carboxamidine]
  Ki: 6 to 23 nM

## CSc1sc(C(=N)N)cc1S(=O)(=O)c1cccc(-c2ccc(NC3=NCCN3)cc2C)c1 [Example 233, 4-[4′-(4,5-Dihydro-1H-imidazol-2-ylamino)-2′-methyl-biphenyl-3-sulfonyl]-5-methylsulfanyl-thiophene-2-carboxamidine bis-trifluoroacetate]
  Ki: 6 to 23 nM

## CSc1sc(C(=N)N)cc1S(=O)(=O)c1cccc(-c2ccc(NC(=N)NCCC(C)C)cc2C)c1 [Example 282, 4-{2′-Methyl-4′-[N′-(3-methyl-butyl)-guanidino]-biphenyl-3-sulfonyl}-5-methylsulfanyl-thiophene-2-carboxamidine bistrifluoroacetate]
  Ki: 6 to 23 nM

## CSc1sc(C(=N)N)cc1S(=O)(=O)c1cccc(-c2cc(C)cc(C)c2)c1 [Example 75, 4-(3′,5′-Dimethyl-biphenyl-3-sulfonyl)-5-methylsulfanyl-thiophene-2-carboxamidine]
  Ki: 6 to 23 nM

## CSc1sc(C(=N)N)cc1S(=O)(=O)c1cccc(-c2ccc(Oc3ccccc3)cc2)c1 [Example 56, 5-Methylsulfanyl-4-(4′-phenoxy-biphenyl-3-sulfonyl)-thiophene-2-carboxamidine]
  Ki: 6 to 23 nM

## CSc1sc(C(=N)N)cc1S(=O)(=O)c1cccc(-c2c(C)cccc2NC(=O)CCCCCCCCCCN)c1 [Example 211, 11-Amino-undecanoic acid [3′-(5-carbamimidoyl-2-methylsulfanyl-thiophene-3-sulfonyl)-6-methyl-biphenyl-2-yl]-amide bistrifluoroacetate]
  Ki: 6 to 23 nM

## CSc1sc(C(=N)N)cc1S(=O)(=O)c1cccc(-c2cccc(-c3ccccc3)c2O)c1 [Example 2]
  Ki: 6 to 23 nM

## CSc1sc(C(=N)N)cc1S(=O)(=O)c1cccc(-c2c(C)cccc2N)c1 [Example 25, 4-(2′-Amino-6′-methyl-biphenyl-3-sulfonyl)-5-methylsulfanyl-thiophene-2-carboxamidine trifluoroacetate]
  Ki: 6 to 23 nM

## CSc1sc(C(=N)N)cc1S(=O)(=O)c1cc(O)cc(-c2ccccc2Cl)c1 [Example 18, 4-(2′-Chloro-5-hydroxy-biphenyl-3-sulfonyl)-5-methylsulfanyl-thiophene-2-carboxamidine trifluoroacetate]
  Ki: 6 to 23 nM

## COC(=O)c1ccc(-c2cccc(S(=O)(=O)c3cc(C(=N)N)sc3SC)c2)cc1 [Example 74, 3′-(5-Carbamimidoyl-2-methylsulfanyl-thiophene-3-sulfonyl)-biphenyl-4-carboxylic acid methyl ester]
  Ki: 6 to 23 nM

## CSc1sc(C(=N)N)cc1S(=O)(=O)c1cccc(-c2cc(C=O)ccc2C)c1 [Example 8, 4-(5′-Formyl-2′-methyl-biphenyl-3-sulfonyl)-5-methylsulfanyl-thiophene-2-carboxamidine trifluoroacetate]
  Ki: 6 to 23 nM

## CSc1sc(C(=N)N)cc1S(=O)(=O)c1cccc(-c2ccco2)c1 [Example 76, 4-(3-Furan-2-yl-benzenesulfonyl)-5-methylsulfanyl-thiophene-2-carboxamidine]
  Ki: 6 to 23 nM

## CSc1sc(C(=N)N)cc1S(=O)(=O)c1cccc(-c2ccccc2C)c1 [Example 90, 4-(2′-methyl-biphenyl-3-sulfonyl)-5-methylsulfanyl-thiophene-2-carboxamidine]
  Ki: 6 to 23 nM

## CSc1sc(C(=N)N)cc1S(=O)(=O)c1cccc(-c2cccc3c2oc2ccccc23)c1 [Example 66, 4-(3-Dibenzofuran-4-yl-benzenesulfonyl)-5-methylsulfanyl-thiophene-2-carboxamidine]
  Ki: 6 to 23 nM

## CSc1sc(C(=N)N)cc1S(=O)(=O)c1cccc(-c2c(C)cc(Cl)cc2NC(=O)CCCS(C)(=O)=O)c1 [Example 135, N-[3′-(5-Carbamimidoyl-2-methylsulfanyl-thiophene-3-sulfonyl)-4-chloro-6-methyl-biphenyl-2-yl]-4-methanesulfonyl-butyramide trifluoroacetate]
  Ki: 6 to 23 nM

## CSc1sc(C(=N)N)cc1S(=O)(=O)c1cccc(-c2c(C)cccc2C)c1 [Example 96, 4-(2′,6′-dimethyl-biphenyl-3-sulfonyl)-5-methylsulfanyl-thiophene-2-carboxamidine]
  Ki: 6 to 23 nM

## CSc1sc(C(=N)N)cc1S(=O)(=O)c1cccc(-c2cccc(C(=O)N(C)C)c2)c1 [Example 103, 3′-(5-carbamimidoyl-2-methylsulfanyl-thiophene-3-sulfonyl)-biphenyl-3-carboxylic acid dimethylamide]
  Ki: 6 to 23 nM

## CSc1sc(C(=N)N)cc1S(=O)(=O)c1cccc(Oc2ccccc2)c1 [Example 116, 5-Metylsulfanyl-4-(3-phenoxy-benzenesulfonyl)-thiophene-2-carboxamidine hydrochloride salt]
  Ki: 6 to 23 nM

## CSc1sc(C(=N)N)cc1S(=O)(=O)c1cccc(-c2ccc(C(C)=O)cc2)c1 [Example 85, 4-(4′-acetyl-biphenyl-3-sulfonyl)-5-methylsulfanyl-thiophene-2-carboxamidine]
  Ki: 6 to 23 nM

## CSc1sc(C(=N)N)cc1S(=O)(=O)c1cccc(-c2cccc(CO)c2)c1 [Example 64, 4-(3′-Hydroxymethyl-biphenyl-3-sulfonyl)-5-methylsulfanyl-thiophene-2-carboxamidine]
  Ki: 6 to 23 nM

## CSc1sc(C(=N)N)cc1S(=O)(=O)c1cccc(-c2ccc(C)cc2)c1 [Example 52, 4-(4′-Methyl-biphenyl-3-sulfonyl)-5-methylsulfanyl-thiophene-2-carboxamidine]
  Ki: 6 to 23 nM
